One substance from publication PMC11187126, “Structure and dynamics of the pyroglutamylated RF-amide peptide QRFP receptor GPR103” (Nature Communications, 2024) can be followed below.

What is called EC50 is the midpoint of the concentration-response curve. High values mean a need for much substance, low ones an effect from little substance.

Like-named read-outs stand apart in the source and are kept apart here. No end group written: not given here.

The target in this assay is T1, GPR103 Q125^3.32A (Homo sapiens, UniProt Q96P65, Q125A).
T1 construct: we used human full-length QRFPR-encoding plasmids; expressed in transfected cells; host or cells: HEK293 cells, pCAGGS vector
T1 sequence (Q96P65 1-431 Q125A): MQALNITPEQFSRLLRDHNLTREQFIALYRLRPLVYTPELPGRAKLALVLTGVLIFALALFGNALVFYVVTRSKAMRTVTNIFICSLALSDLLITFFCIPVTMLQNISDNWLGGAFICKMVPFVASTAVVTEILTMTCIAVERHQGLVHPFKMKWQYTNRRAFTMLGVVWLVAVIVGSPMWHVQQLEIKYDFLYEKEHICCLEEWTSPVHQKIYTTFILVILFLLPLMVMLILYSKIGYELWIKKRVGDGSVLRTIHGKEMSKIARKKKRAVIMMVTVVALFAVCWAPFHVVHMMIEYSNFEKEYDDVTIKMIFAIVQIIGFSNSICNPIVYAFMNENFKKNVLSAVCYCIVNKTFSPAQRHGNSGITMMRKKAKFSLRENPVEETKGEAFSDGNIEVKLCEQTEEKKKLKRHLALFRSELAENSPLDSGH
Kind of assay: TGFα shedding assay; Exp. level WT (1:50). In kind it is cell-based.

Regarding TSGPLGNLAEELNGYSRKKGGFSFRF-NH2 [QRFP26], the Emax stood at 46.53 % WT (Exp. #1); 25.38 % WT (Exp. #2); 32.41 % WT (Exp. #3); 34.8% (mean, read-out: Emax); 35.7 ± 5.1% (n = 3, read-out: Emax). Further, the EC50 (n = 3) is 282 nM.
